According to patent US11497212B2, “Substituted thiophenyl uracils, salts thereof and the use thereof as herbicidal agents” (Syngenta Crop Protection AG, priority 2017, dated 2022):

Assays:
Type in all cases: in vivo
Viola tricolor [1] = assay: Herbicidal action post-emergence (greenhouse pot trial)
Procedure, shortened: (§1)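 One-leaf-stage seedlings, 2–3 weeks old, are treated on their green parts with an aqueous emulsion or suspension of the test compound (WP or EC, 0.5% additive) using 600 L/ha of water at up to 80 g/ha. About 3 weeks on, percent kill is estimated visually versus untreated plants.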

Amaranthus retroflexus [2] = assay: as above; conditions: scored visually after about 3 weeks vs untreated controls
Procedure, shortened: as §1

Digitaria sanguinalis [3] = assay: as above
Procedure, shortened: as §1

Setaria viridis [4] = assay: as above; conditions: scored visually after about 3 weeks vs untreated controls
Procedure, shortened: as §1

Alopecurus myosuroides [5] = assay: as above; conditions: application rate 80 g/ha, scored visually after about 3 weeks vs untreated controls
Procedure, shortened: as §1

Stellaria media [6] = assay: as above; conditions: scored visually after about 3 weeks vs untreated controls
Procedure, shortened: as §1

Abutilon theophrasti [7] = assay: as above; conditions: scored visually after about 3 weeks vs untreated controls
Procedure, shortened: as §1

Lolium rigidum [8] = assay: as above; conditions: application rate 80 g/ha, scored visually after about 3 weeks vs untreated controls
Procedure, shortened: as §1

Echinochloa crus-galli [9] = assay: as above; conditions: scored visually after about 3 weeks vs untreated controls
Procedure, shortened: as §1

Pharbitis purpurea [10] = assay: as above
Procedure, shortened: as §1

Polygonum convolvulus = assay: as above; conditions: scored visually after about 3 weeks vs untreated controls
Procedure, shortened: as §1

Veronica persica [11] = assay: as above
Procedure, shortened: as §1

Matricaria inodora [12] = assay: as above; conditions: scored visually after about 3 weeks vs untreated controls
Procedure, shortened: as §1

Triticum aestivum = assay: Crop compatibility post-emergence (greenhouse pot trial)
Procedure, shortened: (§2)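 Visual % rating about 3 weeks post-treatment against untreated plants (100% dead, 0% unaffected). Post-emergence spray of aqueous WP/EC preparations with 0.5% additive at 600 L/ha water, applied at one-leaf stage to greenhouse pot-grown crops in sandy loam.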

Viola tricolor [13] = assay: Herbicidal action pre-emergence (greenhouse pot trial); conditions: scored after about 3 weeks
Text: (§3) Seeds of mono- and dicotyledonous weeds and crop plants were laid out in plastic or organic plant pots and covered with soil. The compounds of the invention formulated in the form of wettable powders (WP) or emulsion concentrates (EC) were then applied to the surface of the covering soil as an aqueous suspension or emulsion with addition of 0.5% additive at a water application rate equivalent to 600 L/ha. After the treatment, the pots were placed in a greenhouse and kept under good growth conditions for the test plants. After about 3 weeks, the efficacy of the preparations was scored visually as a percentage by comparison with untreated controls. For example, 100% efficacy=plants have died, 0% efficacy=like control plants. Tables B1 to B16 below show the efficacies of selected compounds of the general formula (I) according to tables I.1 to I.60 on various harmful plants and an application rate corresponding to 320 g/ha or lower that were obtained by the aforementioned trial method.

Amaranthus retroflexus [14] = assay: as above; conditions: scored after about 3 weeks
Text: as §3

Digitaria sanguinalis [15] = assay: as above; conditions: application rate 80 g/ha
Text: as §3

Setaria viridis [16] = assay: as above; conditions: scored after about 3 weeks
Text: as §3

Alopecurus myosuroides [17] = assay: as above; conditions: application rate 320 g/ha, scored after about 3 weeks
Text: as §3

Stellaria media [18] = assay: as above; conditions: scored after about 3 weeks
Text: as §3

Avena fatua = assay: as above; conditions: application rate 320 g/ha
Text: as §3

Abutilon theophrasti [19] = assay: as above; conditions: scored after about 3 weeks
Text: as §3

Lolium rigidum [20] = assay: as above; conditions: application rate 320 g/ha
Text: as §3

Echinochloa crus-galli [21] = assay: as above; conditions: application rate 320 g/ha, scored after about 3 weeks
Text: as §3

Pharbitis purpurea [22] = assay: as above
Text: as §3

Veronica persica [23] = assay: as above
Text: as §3

Matricaria inodora [24] = assay: as above; conditions: scored after about 3 weeks
Text: as §3

Zea mays [25] = assay: Crop compatibility pre-emergence (greenhouse pot trial); conditions: effect vs untreated controls
Text: as §3, with “plants.” for “plants. Tables B1 to B16 below show the efficacies of selected compounds of the general formula (I) according to tables I.1 to I.60 on various harmful plants and an application rate corresponding to 320 g/ha or lower that were obtained by the aforementioned trial method.”
(§4) Crop compatibilities were also scored correspondingly.
(§5) The effects observed are reported here on selected crop plants by comparison with the untreated controls (values in %).

Oryza sativa = assay: Crop compatibility post-emergence (greenhouse pot trial)
Procedure, shortened: as §2

Glycine max = assay: Crop compatibility pre-emergence (greenhouse pot trial); conditions: application rate 320 g/ha, effect vs untreated controls
Text: as §3, with “plants.” for “plants. Tables B1 to B16 below show the efficacies of selected compounds of the general formula (I) according to tables I.1 to I.60 on various harmful plants and an application rate corresponding to 320 g/ha or lower that were obtained by the aforementioned trial method.”
as §4, §5

Zea mays [26] = assay: Crop compatibility post-emergence (greenhouse pot trial); conditions: application rate 20 g/ha
Procedure, shortened: as §2

For `CCOCCOC(=O)C(C)Sc1cc(-n2c(=O)cc(C(F)(F)F)n(C)c2=O)c(F)cc1Cl` (centres unmarked) [I.1-2], the “Viola tricolor (Efficacy in %)” value (Viola tricolor [1]; application rate 80 g/ha) was 100%, the “Amaranthus retroflexus (Efficacy in %)” value (Amaranthus retroflexus [2]; application rate 80 g/ha) was 100% and the “Digitaria sanguinalis (Efficacy in %)” value (Digitaria sanguinalis [3]; application rate 80 g/ha) was 100%. The “Setaria viridis (Efficacy in %)” value (Setaria viridis [4]; application rate 80 g/ha) was 100%, the “Alopecurus myosuroides (Efficacy in %)” value (Alopecurus myosuroides [5]) was 90% and the “Stellaria media (Efficacy in %)” value (Stellaria media [6]; application rate 80 g/ha) was 100%. The “Abutilon theophrasti (Efficacy in %)” value (Abutilon theophrasti [7]; application rate 80 g/ha) was 100%, the “Lolium rigidum (Efficacy in %)” value (Lolium rigidum [8]) was 100% and the “Echinochloa crus-galli (Efficacy in %)” value (Echinochloa crus-galli [9]; application rate 80 g/ha) was 100%. For the same molecule, the “Pharbitis purpurea (Efficacy in %)” value (Pharbitis purpurea [10]; application rate 80 g/ha) was 100%, the “Polygonum convolvulus (Efficacy in %)” value (Polygonum convolvulus; application rate 80 g/ha) was 100% and the “Veronica persica (Efficacy in %)” value (Veronica persica [11]; application rate 80 g/ha) was 100%. For the same molecule, the “Matricaria inodora (Efficacy in %)” value (Matricaria inodora [12]; application rate 80 g/ha) was 100%, the “Triticum aestivum (Efficacy in %)” value (Triticum aestivum; application rate 5 g/ha) was 20% and the “Viola tricolor (Efficacy in %)” value (Viola tricolor [13]; application rate 320 g/ha) was 100%. The “Amaranthus retroflexus (Efficacy in %)” value (Amaranthus retroflexus [14]; application rate 320 g/ha) was 100%, the “Digitaria sanguinalis (Efficacy in %)” value (Digitaria sanguinalis [15]) was 100% and the “Setaria viridis (Efficacy in %)” value (Setaria viridis [16]; application rate 320 g/ha) was 100%. The “Alopecurus myosuroides (Efficacy in %)” value (Alopecurus myosuroides [17]) was 80%, the “Stellaria media (Efficacy in %)” value (Stellaria media [18]; application rate 320 g/ha) was 100% and the “Avena fatua (Efficacy in %)” value (Avena fatua) was 90%. For the same molecule, the “Abutilon theophrasti (Efficacy in %)” value (Abutilon theophrasti [19]; application rate 320 g/ha) was 100%, the “Lolium rigidum (Efficacy in %)” value (Lolium rigidum [20]) was 90% and the “Echinochloa crus-galli (Efficacy in %)” value (Echinochloa crus-galli [21]) was 100%. For the same molecule, the “Pharbitis purpurea (Efficacy in %)” value (Pharbitis purpurea [22]; application rate 320 g/ha) was 100%, the “Veronica persica (Efficacy in %)” value (Veronica persica [23]; application rate 320 g/ha) was 100% and the “Matricaria inodora (Efficacy in %)” value (Matricaria inodora [24]; application rate 320 g/ha) was 100%. For the same molecule, the “Zea mays (Efficacy in %)” value (Zea mays [25]; application rate 20 g/ha) was 0%.

For `Cn1c(C(F)(F)F)cc(=O)n(-c2cc(SCC(C)(C)C(=O)OCC3CCOC3)c(Cl)cc2F)c1=O` (centres unmarked) [I.48-72], the “Viola tricolor (Efficacy in %)” value (Viola tricolor [1]; application rate 80 g/ha) was 100%, the “Amaranthus retroflexus (Efficacy in %)” value (Amaranthus retroflexus [2]; application rate 80 g/ha) was 100% and the “Digitaria sanguinalis (Efficacy in %)” value (Digitaria sanguinalis [3]; application rate 80 g/ha) was 100%. For the same molecule, the “Setaria viridis (Efficacy in %)” value (Setaria viridis [4]; application rate 80 g/ha) was 100%, the “Alopecurus myosuroides (Efficacy in %)” value (Alopecurus myosuroides [5]) was 90% and the “Stellaria media (Efficacy in %)” value (Stellaria media [6]; application rate 80 g/ha) was 100%. The “Abutilon theophrasti (Efficacy in %)” value (Abutilon theophrasti [7]; application rate 80 g/ha) was 100%, the “Lolium rigidum (Efficacy in %)” value (Lolium rigidum [8]) was 80% and the “Echinochloa crus-galli (Efficacy in %)” value (Echinochloa crus-galli [9]; application rate 80 g/ha) was 100%. The “Pharbitis purpurea (Efficacy in %)” value (Pharbitis purpurea [10]; application rate 80 g/ha) was 100%, the “Polygonum convolvulus (Efficacy in %)” value (Polygonum convolvulus; application rate 80 g/ha) was 100% and the “Veronica persica (Efficacy in %)” value (Veronica persica [11]; application rate 80 g/ha) was 100%. For the same molecule, the “Matricaria inodora (Efficacy in %)” value (Matricaria inodora [12]; application rate 80 g/ha) was 100%, the “Oryza sativa (Efficacy in %)” value (Oryza sativa; application rate 5 g/ha) was 0% and the “Oryza sativa (Efficacy in %)” value (Oryza sativa; application rate 20 g/ha) was 10%. For the same molecule, the “Triticum aestivum (Efficacy in %)” value (Triticum aestivum; application rate 20 g/ha) was 20%, the “Viola tricolor (Efficacy in %)” value (Viola tricolor [13]; application rate 320 g/ha) was 100% and the “Amaranthus retroflexus (Efficacy in %)” value (Amaranthus retroflexus [14]; application rate 320 g/ha) was 100%. The “Digitaria sanguinalis (Efficacy in %)” value (Digitaria sanguinalis [15]) was 100%, the “Setaria viridis (Efficacy in %)” value (Setaria viridis [16]; application rate 320 g/ha) was 100% and the “Alopecurus myosuroides (Efficacy in %)” value (Alopecurus myosuroides [17]) was 90%. The “Stellaria media (Efficacy in %)” value (Stellaria media [18]; application rate 320 g/ha) was 100%, the “Avena fatua (Efficacy in %)” value (Avena fatua) was 80% and the “Abutilon theophrasti (Efficacy in %)” value (Abutilon theophrasti [19]; application rate 320 g/ha) was 100%. The “Lolium rigidum (Efficacy in %)” value (Lolium rigidum [20]) was 80%, the “Echinochloa crus-galli (Efficacy in %)” value (Echinochloa crus-galli [21]) was 100% and the “Pharbitis purpurea (Efficacy in %)” value (Pharbitis purpurea [22]; application rate 320 g/ha) was 100%. For the same molecule, the “Veronica persica (Efficacy in %)” value (Veronica persica [23]; application rate 320 g/ha) was 100%, the “Matricaria inodora (Efficacy in %)” value (Matricaria inodora [24]; application rate 320 g/ha) was 100% and the “Zea mays (Efficacy in %)” value (Zea mays [25]; application rate 320 g/ha) was 0%. The “Glycine max (Efficacy in %)” value (Glycine max) was 10%.

With `CC(Sc1cc(-n2c(=O)cc(C(F)(F)F)n(C)c2=O)c(F)cc1Cl)C(=O)OCC1CCSC1` (centres unmarked) [I.1-82] the “Viola tricolor (Efficacy in %)” value (Viola tricolor [1]; application rate 20 g/ha) was 100%, the “Amaranthus retroflexus (Efficacy in %)” value (Amaranthus retroflexus [2]; application rate 20 g/ha) was 100% and the “Digitaria sanguinalis (Efficacy in %)” value (Digitaria sanguinalis [3]; application rate 20 g/ha) was 100%. The “Setaria viridis (Efficacy in %)” value (Setaria viridis [4]; application rate 20 g/ha) was 80%, the “Stellaria media (Efficacy in %)” value (Stellaria media [6]; application rate 20 g/ha) was 80% and the “Abutilon theophrasti (Efficacy in %)” value (Abutilon theophrasti [7]; application rate 20 g/ha) was 100%. For the same molecule, the “Echinochloa crus-galli (Efficacy in %)” value (Echinochloa crus-galli [9]; application rate 20 g/ha) was 100%, the “Pharbitis purpurea (Efficacy in %)” value (Pharbitis purpurea [10]; application rate 20 g/ha) was 100% and the “Polygonum convolvulus (Efficacy in %)” value (Polygonum convolvulus; application rate 20 g/ha) was 100%. For the same molecule, the “Veronica persica (Efficacy in %)” value (Veronica persica [11]; application rate 20 g/ha) was 100%, the “Matricaria inodora (Efficacy in %)” value (Matricaria inodora [12]; application rate 20 g/ha) was 100% and the “Zea mays (Efficacy in %)” value (Zea mays [26]) was 20%. The “Oryza sativa (Efficacy in %)” value (Oryza sativa; application rate 20 g/ha) was 10%, the “Triticum aestivum (Efficacy in %)” value (Triticum aestivum; application rate 5 g/ha) was 0% and the “Viola tricolor (Efficacy in %)” value (Viola tricolor [13]; application rate 80 g/ha) was 100%. The “Amaranthus retroflexus (Efficacy in %)” value (Amaranthus retroflexus [14]; application rate 80 g/ha) was 100%, the “Digitaria sanguinalis (Efficacy in %)” value (Digitaria sanguinalis [15]) was 80% and the “Setaria viridis (Efficacy in %)” value (Setaria viridis [16]; application rate 80 g/ha) was 100%. The “Stellaria media (Efficacy in %)” value (Stellaria media [18]; application rate 80 g/ha) was 100%, the “Abutilon theophrasti (Efficacy in %)” value (Abutilon theophrasti [19]; application rate 80 g/ha) was 100% and the “Pharbitis purpurea (Efficacy in %)” value (Pharbitis purpurea [22]; application rate 80 g/ha) was 100%. The “Veronica persica (Efficacy in %)” value (Veronica persica [23]; application rate 80 g/ha) was 100%, the “Matricaria inodora (Efficacy in %)” value (Matricaria inodora [24]; application rate 80 g/ha) was 100% and the “Zea mays (Efficacy in %)” value (Zea mays [25]; application rate 80 g/ha) was 0%.
